Test results as given in patent US20240199608A1 (Eli Lilly and Company, priority 2022, published 2024).
Like-named read-outs stand apart in the source and are kept apart here.

Target: T1, Human AhR (Homo sapiens, UniProt P35869)
T1 construct: expressed in transfected cells
T1 sequence (P35869 11-848): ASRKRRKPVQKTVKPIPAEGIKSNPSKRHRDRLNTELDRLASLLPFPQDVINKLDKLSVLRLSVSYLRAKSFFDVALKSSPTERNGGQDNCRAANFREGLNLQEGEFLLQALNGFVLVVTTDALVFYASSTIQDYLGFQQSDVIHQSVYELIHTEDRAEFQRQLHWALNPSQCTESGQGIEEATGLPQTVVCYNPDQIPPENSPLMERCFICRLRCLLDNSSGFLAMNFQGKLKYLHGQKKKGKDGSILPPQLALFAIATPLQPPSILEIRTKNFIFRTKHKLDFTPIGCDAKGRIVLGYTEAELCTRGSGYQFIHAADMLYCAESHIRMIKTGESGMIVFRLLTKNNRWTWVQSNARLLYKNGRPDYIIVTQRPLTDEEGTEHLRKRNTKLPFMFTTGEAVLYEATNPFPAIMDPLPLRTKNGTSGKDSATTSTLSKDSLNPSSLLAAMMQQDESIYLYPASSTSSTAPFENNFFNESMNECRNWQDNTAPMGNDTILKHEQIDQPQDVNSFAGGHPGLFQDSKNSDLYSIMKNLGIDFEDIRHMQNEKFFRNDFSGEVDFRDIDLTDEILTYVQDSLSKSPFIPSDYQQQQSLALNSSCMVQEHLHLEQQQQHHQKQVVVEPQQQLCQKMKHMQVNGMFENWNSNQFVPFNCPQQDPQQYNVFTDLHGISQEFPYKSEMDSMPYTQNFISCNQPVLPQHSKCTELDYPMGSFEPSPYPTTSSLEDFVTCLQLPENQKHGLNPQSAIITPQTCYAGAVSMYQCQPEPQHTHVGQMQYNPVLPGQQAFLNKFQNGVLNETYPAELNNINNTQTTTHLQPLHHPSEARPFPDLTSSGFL
Assay: hAHR Nuclear Translocation Assay
Assay type: cell-based
Settings: AhR-EGFP nuclear translocation in Jump-In T-REx HEK293 cells, 45 minutes incubation, read-out: Rel EC50
Source text: The purpose of this assay is to measure the ability of compounds to bind to, activate, and induce the translocation of AhR into the nucleus of a cell for transcription. Stable cell lines were established using Jump-InTM T-RExTM HEK293 Retargeting Kit (Life Technologies). Human AhR cDNA was cloned into the pJTI R4 CMV-TO EGFP vector. The EGFP was cloned to the C-terminal of AHR to form AhR-EGFP chimera. The pJTI R4 CMV-TO AhR-EGFP vector was transfected using FuGENE® HD into Jump-InTM T-RExTM HEK293 cells. Transfected cells were selected using 2.5 mg/ml G418 for 10 to 14 days, then expanded, harvested, and suspended in freeze media (FBS with 8% DMSO) at 2×10^7 cells/ml, and aliquots were stored in liquid nitrogen. One day before the assay date, cells were thawed and resuspended in DMEM with 5% FBS in the presence of 1 μg/ml Doxycycline and plated into ploy-L-Lysine coated […]-384 ULTRA Microplates (Perkin Elmer) at 12,000 to 15,000 cells per well and incubated at 37° C. and 5% CO2 overnight. On the assay date, compound was serially diluted (1:2) into 384-well nunc plates with DMSO using acoustic dispensing (ECHO®). The dose response was a 20-point curve. […] The culture media was damped and 25 μl of DMEM plus 0.1% BSA was added, then 25 μL of compound in DMEM plus 0.1% BSA was added into cell plates. Cells were incubated compounds at 37° C. and 5% CO2 for 45 minutes. The final DMSO concentration was 0.2%. The media was damped after 45 minutes incubation. The cells were fixed with 40 μl of cold MeOH (-20° C.) for 20 minutes. The MeOH was damped and 50 μL of DPBS containing 1 μg/mL Hochst was added into the cell plates. The intensity of EGFP was quantitated by using Opera PHENIX® or OPERETTA® high content image system (Perkin Elmer) with 20× Water Objective and five field per well. The ratio of EGFP fluorescent intensity in nuclear over cytosol was analyzed using a 4-parameter nonlinear logistic equation to determine the potency of AhR agonists.

EC50 (numeric values) [nM]	EC50 (class symbols) [nM]	SMILES
5.37	–	CC1CCc2c1cc(C(=O)Nc1ccccn1)c1nncn21 (single isomer, unassigned) [Example 3]
–	> 50	CC1CCc2c1cc(C(=O)Nc1ccccn1)c1nncn21 (single isomer, unassigned) [Example 4]
11.1	–	CC1CCc2c1cc(C(=O)Nc1ncccn1)c1nncn21 (single isomer, unassigned) [Example 7, 6-Methyl-N-(pyrimidin-2-yl)-7,8-dihydro-6H-cyclopenta[e][1,2,4] triazolo[4,3-a]pyridine-4-carboxamide]
25.3	–	C[C@H]1CCc2c1cc(C(=O)Nc1ncccn1)c1nncn21 (single isomer, unassigned) [Example 8, 6-Methyl-N-(pyrimidin-2-yl)-7,8-dihydro-6H-cyclopenta[e][1,2,4]triazolo [4,3-a]pyridine-4-carboxamide]
3.37	–	CC1CCc2c1cc(C(=O)Nc1ccccn1)c1nccn21 (single isomer, unassigned) [Example 9, 6-Methyl-N-(pyridin-2-yl)-7,8-dihydro-6H-cyclopenta[e]imidazo[1,2-a]pyridine-4-carboxamide]
1.32	–	C[C@H]1CCc2c1cc(C(=O)Nc1ccccn1)c1nccn21 (single isomer, unassigned) [Example 10, 6-Methyl-N-(pyridin-2-yl)-7,8-dihydro-6H-cyclopenta[e]imidazo[1,2-a]pyridine-4-carboxamide]
1.58	–	CC1CCc2c1cc(C(=O)Nc1ncccn1)c1nccn21 (single isomer, unassigned) [Example 11, 6-Methyl-N-(pyrimidin-2-yl)-7,8-dihydro-6H-cyclopenta[e]imidazo[1,2-a]pyridine-4-carboxamide]
9.8	–	C[C@H]1CCc2c1cc(C(=O)Nc1ncccn1)c1nccn21 (single isomer, unassigned) [Example 12, 6-Methyl-N-(pyrimidin-2-yl)-7,8-dihydro-6H-cyclopenta[e]imidazo[1,2-a]pyridine-4-carboxamide]
0.495	–	CC1CCc2c1cc(C(=O)Nc1ncc(F)cn1)c1nccn21 (single isomer, unassigned) [Example 13, N-(5-Fluoropyrimidin-2-yl)-6-methyl-7,8-dihydro-6H-cyclopenta[e]imidazo[1,2-a]pyridine-4-carboxamide]
1.66	–	C[C@H]1CCc2c1cc(C(=O)Nc1ncc(F)cn1)c1nccn21 (single isomer, unassigned) [Example 14, N-(5-Fluoropyrimidin-2-yl)-6-methyl-7,8-dihydro-6H-cyclopenta[e]imidazo[1,2-a]pyridine-4-carboxamide]
–	> 50	COc1ccccc1NC(=O)c1cc2c(n3cnnc13)CCC2C (single isomer, unassigned) [Example 20, N-(2-methoxyphenyl)-6-methyl-7,8-dihydro-6H-cyclopenta[e][1,2,4] triazolo[4,3-a]pyridine-4-carboxamide]
–	> 50	COc1ccccc1NC(=O)c1cc2c(n3cnnc13)CCC2C (single isomer, unassigned) [Example 21, N-(2-methoxyphenyl)-6-methyl-7,8-dihydro-6H-cyclopenta[e][1,2,4] triazolo[4,3-a]pyridine-4-carboxamide]
–	1 to 10	CC1CCc2c1cc(C(=O)Nc1nccs1)c1nncn21 (single isomer, unassigned) [Example 24, 6-Methyl-N-(thiazol-2-yl)-7,8-dihydro-6H-cyclopenta[e][1,2,4] triazolo[4,3-a]pyridine-4-carboxamide]
–	1 to 10	CC1CCc2c1cc(C(=O)Nc1nccs1)c1nncn21 (single isomer, unassigned) [Example 25, 6-Methyl-N-(thiazol-2-yl)-7,8-dihydro-6H-cyclopenta[e][1,2,4] triazolo[4,3-a]pyridine-4-carboxamide]
–	1 to 10	CC1CCc2c1cc(C(=O)Nc1ncc(C(F)(F)F)cn1)c1nncn21 (single isomer, unassigned) [Example 26, 6-Methyl-N-(5-(trifluoromethyl)pyrimidin-2-yl)-7,8-dihydro-6H-cyclopenta[e][1,2,4] triazolo[4,3-a]pyridine-4-carboxamide]
–	1 to 10	CC1CCc2c1cc(C(=O)Nc1ncc(C(F)(F)F)cn1)c1nncn21 (single isomer, unassigned) [Example 27, 6-Methyl-N-(5-(trifluoromethyl)pyrimidin-2-yl)-7,8-dihydro-6H-cyclopenta[e][1,2,4] triazolo[4,3-a]pyridine-4-carboxamide]
–	10 to 50	Cc1cnc(NC(=O)c2cc3c(n4cnnc24)CCC3C)nc1 (single isomer, unassigned) [Example 28, 6-Methyl-N-(5-methylpyrimidin-2-yl)-7,8-dihydro-6H-cyclopenta[e][1,2,4]tria zolo[4,3-a]pyridine-4-carboxamide]
–	10 to 50	Cc1cnc(NC(=O)c2cc3c(n4cnnc24)CCC3C)nc1 (single isomer, unassigned) [Example 29, 6-Methyl-N-(5-methylpyrimidin-2-yl)-7,8-dihydro-6H-cyclopenta[e][1,2,4]tria zolo[4,3-a]pyridine-4-carboxamide]
–	10 to 50	CC1CCc2c1cc(C(=O)Nc1ncco1)c1nncn21 (single isomer, unassigned) [Example 30, 6-Methyl-N-(oxazol-2-yl)-7,8-dihydro-6H-cyclopenta[e][1,2,4] triazolo[4,3-a]pyridine-4-carboxamide]
–	10 to 50	CC1CCc2c1cc(C(=O)Nc1ncco1)c1nncn21 (single isomer, unassigned) [Example 31, 6-Methyl-N-(oxazol-2-yl)-7,8-dihydro-6H-cyclopenta[e][1,2,4] triazolo[4,3-a]pyridine-4-carboxamide]
–	1 to 10	CC1CCc2c1cc(C(=O)Nc1ccon1)c1nncn21 (single isomer, unassigned) [Example 32]
–	> 50	CC1CCc2c1cc(C(=O)Nc1ccon1)c1nncn21 (single isomer, unassigned) [Example 33]
–	1 to 10	CC1CCc2c1cc(C(=O)Nc1ccc(C(F)(F)F)cn1)c1nncn21 (single isomer, unassigned) [Example 34, 6-Methyl-N-(5-(trifluoromethyl)95yridine-2-yl)-7,8-dihydro-6H-cyclopenta[e][1,2,4] triazolo[4,3-a]pyridine-4-carboxamide]
–	1 to 10	CC1CCc2c1cc(C(=O)Nc1ccc(C(F)(F)F)cn1)c1nncn21 (single isomer, unassigned) [Example 35, 6-Methyl-N-(5-(trifluoromethyl)pyridin-2-yl)-7,8-dihydro-6H-cyclopenta[e][1,2,4] triazolo[4,3-a]pyridine-4-carboxamide]
–	1 to 10	CC1CCc2c1cc(C(=O)Nc1ncccc1F)c1nncn21 (single isomer, unassigned) [Example 36, N-(3-Fluoropyridin-2-yl)-6-methyl-7,8-dihydro-6H-cyclopenta[e][1,2,4] triazolo[4,3-a]pyridine-4-carboxamide]
–	1 to 10	CC1CCc2c1cc(C(=O)Nc1ncccc1F)c1nncn21 (single isomer, unassigned) [Example 37, N-(3-Fluoropyridin-2-yl)-6-methyl-7,8-dihydro-6H-cyclopenta[e][1,2,4] triazolo[4,3-a]pyridine-4-carboxamide]
